Laboratory results: patent publication US8808728B2, “Feed additive for laying hen and feed containing the same” (Unitika Ltd., priority 2004, dated 2014)
Read-outs that look alike come from different tables or passages of the source.

Columns and labels:
[1] = Solubility in water of calcium salts; format: physicochemical
Excerpt: The solubility in water of the calcium lactobionate thus obtained was compared with those of other calcium salts (manufactured by Wako Pure Chemical Industries).

laying hens [2] = format: in vivo; conditions: feed without calcium carbonate and di-lime phosphate; hens aged 470 days, fed 60 days
Experimental: (§1) Ten laying hens aged 470 days (laying white leghorn hens (Julia)) were fed with each of the feeds prepared in Examples 2 to 5 for 60 days and the egg-laying rate, the egg breakage and egg cracking rate and eggshell strength were measured. The egg-laying rate was determined in accordance with the following Equation 1, while the egg breakage and egg cracking rate were determined in accordance with the following Equation 2. Eggshell strength was determined by horizontally placing an egg and measuring the bursting strength with a rheometer. A feed containing no feed additive for laying hens was also prepared as a control. […] Egg-laying rate=(total number of eggs in each test lot/total number of eggs in control lot)×100 [Equation 1] Egg breakage/cracking rate=(number of broken or cracked eggs/total number of eggs yield)×100 [Equation 2]
Ten laying hens aged 470 days (laying white leghorn hens (Julia)) were fed with each of the feeds prepared in Examples 10 and 11 for 60 days and the egg-laying rate, the egg breakage and egg cracking rate and eggshell strength were measured in the same manner as in Examples 2 to 5. […]

laying hens [3] = assay: Test Example 4: feeding of feeds of Examples 12 to 14 to laying hens aged 500 days for 60 days; format: in vivo; conditions: Boris Brown hens aged 500 days, fed 60 days
Experimental: as §1
Four laying hens aged 500 days (Boris Brown) were fed with each of the feeds prepared in Examples 12 to 14 for 60 days and the egg-laying rate and the eggshell strength were measured in the same manner as in Examples 2 to 5. […]

| SMILES | Solubilities in water ([1]; water) [g/100 mL] | Solubilities in water [1] [g/100 mL] | Eggshell strength (laying hens [2]) | Eggshell strength (laying hens [3]) |
| --- | --- | --- | --- | --- |
| O=C([O-])[C@H](O)[C@@H](O)[C@H](O)[C@H](O)CO.O=C([O-])[C@H](O)[C@@H](O)[C@H](O)[C@H](O)CO.[Ca+2] [Ca gluconate, reference compound] | 3.8 | – | – | – |
| O=C([O-])[C@H](O)[C@@H](O)[C@H](O[C@@H]1O[C@H](CO)[C@H](O)[C@H](O)[C@H]1O)[C@H](O)CO.O=C([O-])[C@H](O)[C@@H](O)[C@H](O[C@@H]1O[C@H](CO)[C@H](O)[C@H](O)[C@H]1O)[C@H](O)CO.[Ca+2] [Ca lactobionate, calcium lactobionate] | – | >40 | showed an effect of reinforcing eggshells | eggshell reinforcing effect could be obtained |
